Consider one molecule from patent US12578343B2, “Selective ACKR3 modulators and uses thereof” (Luxembourg Institute of Health (LIH), priority 2019, dated 2026).

Common to all, as to format: cell-based
One experiment addresses T1, mouse ACKR3 (mACKR3) (Mus musculus, UniProt P56485).
T1 construct: expressed in transfected cells; host or cells: U87 cells
Nature of the experiment: β-arrestin-1 recruitment to mouse ACKR3. The procedure:
(§1) In brief, 1.2×10^6 U87 cells were plated in 10 cm-culture dishes and 48 hours later co-transfected with pNBe vectors encoding GPCRs C-terminally tagged to SmBiT and human β-arrestin-1 or -2 or mini G proteins (mG, engineered GTPase domains of Gα subunits,) N-terminally fused to LgBiT. 48 hours post-transfection cells were harvested, incubated 25 minutes at 37° C. with Nano-Glo Live Cell substrate diluted 200-fold and distributed into white 96-well plates (5×10^4 cells per well). Ligand-induced, β-arrestin and mG recruitment to GPCRs was evaluated with a Mithras LB940 luminometer (Berthold Technologies) for 20 minutes. For concentration-response curves, the signal recorded with a saturating concentration of full agonist for each receptor was set as 100%.

Experiment [1] concerns rat locus coeruleus neurons. The procedure: 1.9. Ex Vivo Rat Neuron Depolarization
Adult male Wistar rats (6 to 8-week old) were housed at room temperature in groups of three or four with a 12:12 hour light-dark cycle. All animals had access to ad libitum food and water. All procedures were carried out in accordance with guidelines of the European Communities Council Directive of 24 Nov. 1986 (86609EE) and were accepted by the Ethics Committee for Animal Use of the University of Liège (protocol 2061). All efforts were made to minimize animal suffering.
1.9.2. Brain Explant Preparation and Recording Procedures
Rats were anaesthetized with chloral hydrate (400 mg/kg, i.p.) and placed under a cap with oxygenated air (95% O2, 5% CO2) two minutes prior to decapitation. After decapitation, the brain was rapidly removed and placed in ice cold (˜2° C.) oxygenated artificial cerebrospinal fluid (aCSF) of the following composition: NaCl 130 mM, KCl 3.5 mM, NaH2PO4 1.25 mM, NaHCO3 24 mM, Glucose 10 mM, CaCl2 2 mM, MgSO4 1.25 mM. A block of tissue containing the pons was placed in a vibrating blade microtome (Vibratome 1000 Plus, Sectioning System) and a slice containing the locus coeruleus (LC) immediately rostral to the fourth ventricle and the VIIth nerve, used as anatomical landmarks, was cut coronally (400 μm thick). The slice was placed on a nylon mesh in a recording chamber (volume: 0.5 ml) where it was superfused by oxygenated aCSF (34.0±0.5° C.) at a rate of 2 to 3 ml/min. The LC was recognized as a translucent region during transillumination, lateral to the fourth ventricle. All experiments were performed in oxygenated aCSF with synaptic blockers consisting of 10 μM CNQX, 10 μM SR95531, 1 μM MK801, and 1 μM CGP55845, which block AMPA/Kainate, GABAA, NMDA, and GABAB receptors, respectively. This ensured that the spontaneous firing of the neurons was only due to its endogenous pace making.
Extracellular single cell recordings of LC neurons were performed with glass microelectrodes filled with aCSF (resistance 10-20 MΩ). Signals were passed through an impedance adapter and were amplified 1000× using a home-made amplifier. […] Data were collected and analysed with the Spike 2 software (Cambridge Electronic Design). […] The duration of the extracellularly recorded action potentials was 2-3 ms. Drugs and peptides were applied for at least 10 minutes.
The mean firing rate over 1 minute was calculated during each condition. Next, the inhibition of firing by the peptides and drugs used (LIH383 and dynorphin) was quantified as the % of total inhibition. For this purpose, present inventors considered the mean firing rate during the last minute of each condition (control, LIH383 alone, LIH383 plus a given concentration of dynorphin).

In the next experiment the target is KOR (Homo sapiens, UniProt P41145). Description: β-arrestin-1 recruitment to KOR (NanoBiT, U87 cells). The arrangement: expressed in transfected cells; host or cells: U87 cells, transient co-transfection of pNBe vectors. The conditions noted are these: concentrations as high as 3 μM. The method, then:
as §1

Sequence of KOR (P41145 whole entry): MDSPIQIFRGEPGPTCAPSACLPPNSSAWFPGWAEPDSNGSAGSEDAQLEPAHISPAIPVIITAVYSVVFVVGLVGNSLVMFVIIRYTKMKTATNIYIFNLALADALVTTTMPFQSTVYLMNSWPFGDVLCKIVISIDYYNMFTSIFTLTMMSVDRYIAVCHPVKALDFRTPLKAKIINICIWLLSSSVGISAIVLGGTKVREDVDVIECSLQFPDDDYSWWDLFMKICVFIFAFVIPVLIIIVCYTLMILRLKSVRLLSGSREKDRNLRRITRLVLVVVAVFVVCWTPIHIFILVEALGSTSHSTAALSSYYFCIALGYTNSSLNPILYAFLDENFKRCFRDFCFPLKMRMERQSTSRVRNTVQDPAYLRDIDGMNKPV
T1 sequence (P56485 whole entry): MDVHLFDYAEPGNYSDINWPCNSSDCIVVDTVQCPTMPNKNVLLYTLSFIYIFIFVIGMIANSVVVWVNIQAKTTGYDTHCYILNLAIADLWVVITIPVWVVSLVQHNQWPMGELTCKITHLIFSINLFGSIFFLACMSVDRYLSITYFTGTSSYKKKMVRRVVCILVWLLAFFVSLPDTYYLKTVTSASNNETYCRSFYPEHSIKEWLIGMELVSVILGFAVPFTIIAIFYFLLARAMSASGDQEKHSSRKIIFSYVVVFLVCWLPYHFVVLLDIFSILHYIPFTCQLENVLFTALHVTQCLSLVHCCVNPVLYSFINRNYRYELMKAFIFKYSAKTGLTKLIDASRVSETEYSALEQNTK
T1 sequence (P49407 whole entry partner): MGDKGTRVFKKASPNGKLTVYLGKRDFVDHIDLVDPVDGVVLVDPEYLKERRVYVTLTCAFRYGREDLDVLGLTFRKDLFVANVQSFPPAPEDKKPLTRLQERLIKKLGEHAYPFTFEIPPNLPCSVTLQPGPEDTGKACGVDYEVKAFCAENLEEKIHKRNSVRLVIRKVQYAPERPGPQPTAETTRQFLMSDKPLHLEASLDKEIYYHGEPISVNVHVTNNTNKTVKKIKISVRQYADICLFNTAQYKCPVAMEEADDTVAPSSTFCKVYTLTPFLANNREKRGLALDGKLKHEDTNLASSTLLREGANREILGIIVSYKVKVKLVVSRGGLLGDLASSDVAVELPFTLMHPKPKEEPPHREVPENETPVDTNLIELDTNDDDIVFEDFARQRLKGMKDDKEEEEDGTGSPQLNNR

In the case of `CSCC[C@H](NC(=O)[C@H](Cc1ccccc1)NC(=O)CNC(=O)CNC(=O)[C@@H](N)Cc1ccccc1)C(=O)N[C@@H](CCCNC(=N)N)C(=O)N[C@@H](CCCNC(=N)N)C(=O)N[C@@H](CCCCN)C(N)=O` [LIH383], the “agonist activity on mouse ACKR3 compared with human ACKR3” value at mouse ACKR3 (mACKR3) was “equivalent activity on human and mouse ACKR3”. For the same molecule, the “effect of pretreatment on dynorphin A-induced depolarization inhibition” value in experiment [1] (LIH383 1 or 3 μM) was “significant increase of depolarization inhibition and an apparent improved potency of dynorphin A towards its classical receptors”. In experiment [1] (concentration as high as 3 μM), the “inhibition of neuronal firing” value is “did not lead to significant inhibition of neuronal firing”. Further, at KOR, the “activation or inhibition of KOR” value was “no activation or inhibition”.
